Data on 1 molecule can be found in publication PMC6631119, “Nasal Administration and Plasma Pharmacokinetics of Parathyroid Hormone Peptide PTH 1-34 for the Treatment of Osteoporosis” (Pharmaceutics, 2019).

Data set [1] can be described thus: HPLC integrity of spray dried PTH 1-34. It is filed as physicochemical. The conditions noted are these: spray dried dry powder formulations during formulation development, inlet 85 °C. On the procedure: The dry powder formulation was also prepared at CPL as 1% w/w PTH (1-34) with 39% Gellan gum, 40% Solutol® HS15, 20% Trehalose. In brief, 97.5 mg Gellan gum was dissolved in 50 mL ultra-pure water overnight. Solutol® HS15 was rendered molten (60 ± 10 °C), and 100 mg was added to the Gellan gum solution and mixed for 30–45 min at 60 °C. 50 mg of trehalose was added and mixed for a further 10 min. A total 5 mg of PTH 1-34 was dissolved in 5 mL of ultra-pure water, and 2.5 mL was added to the formulation. Particles were prepared using a spray dryer Mini Spray Dryer B-290 (Buchi UK Ltd., Oldham, UK) with the inlet set at 85 °C (outlet modified by inlet temperature), the aspirator 100%, the pump set at 006 equivalent to 2 mL/ min, the spray pressure at 4 bar. Particle size of the dry powder formulation manufactured for use in the sheep was not measured, due to limited availability of material due to batch size. However, the particle size of similar formulations when prepared for loading into the delivery devices was monitored using Helos/BF (Sympatec GmbH, Clausthal-Zellerfeld, Germany) during formulation development, where the VMD was 73.7–91.8 µm (×10 = 10.6–23.7 µm, ×50 = 51.5–98.1 µm, ×90 = 142–153 µm). A total 2.4–2.8% of particles were below 10 µm. As the vast majority of particles were >10 µm, the formulations would be expected to be nasally deposited.

Data set [2] is described as follows: Healthy human volunteer plasma pharmacokinetics of PTH 1-34 (open cross-over, ELISA). Type of data set: in vivo. On the procedure:
An open cross-over clinical IMP (investigative medicinal product) study was conducted in seven healthy female subjects aged over 55 years (mean age 67.7, range 58 to 81 years). Each participant provided informed consent in accordance with ethical committee requirements and good clinical practice. Pre-study screening assessments were carried out within 21 days of the participants receiving their first dose (Supplementary Materials: Section S1). Inclusion and exclusion criteria were applied (Supplementary Materials: Section S2). Participants were admitted to the study centre on the morning of dosing, having abstained from alcohol and smoking for at least 24 h previously and fasted from midnight. Participants were given a light meal on arrival. A cannula was then positioned in the participant’s arm or hand to facilitate the collection of blood samples. The pre-dose sample was taken. Participants received a single subcutaneous injection of 20 μg teriparatide into the abdomen at their first trial visit. Following a seven day wash out period, each participant self-administered 90 μg PTH 1-34 from the nasal spray formulation using the Rexam SP270 nasal spray device; the patients had previously been trained in operation of the Rexam device. Any episodes of sneezing after administration of the nasal formulation were recorded. The nasal spray formulation contained Tc-99m-DTPA, 3–5 MBq per Rexam SP270 nasal spray dose, resulting in an effective radiation dose of less than 0.14 mSv to each participant.
Following either subcutaneous or intranasal dosing, 10 mL blood samples (Becton Dickinson sodium heparin) were taken at 5, 15, 30, 60 120, 180, 240, 300 and 360 min. After each sample was taken, the cannula was flushed with 10 mL 0.9% saline. Blood was stored on ice and centrifuged within 30 min to prepare plasma (4 °C, 1100–1300 g, 10 min). These samples were stored at −20 °C before dispatching to Simbec Research Ltd. (Merthyr Tydfil, UK) for quantification by validated ELISA, in compliance with The UK Good Laboratory Practice Regulations 1999 (Statutory Instrument No. 310 6) and subsequent amendment, OECD Principles of Good Laboratory Practice (Paris 1998) and EC Commission Directive 2004/10/EC of February 2004.
Pharmacokinetic data were analysed using Phoenix® WinNonlin® 5.1 (Certara USA, Inc., Princeton, NJ, USA) from quantified PTH 1-34 in the plasma, using recorded sampling times. Summary statistics (mean, median, SD, coefficient of variation [CV%], minimum, maximum, n) and the following plasma pharmacokinetic parameters were calculated: • Cmax • Tmax • Terminal half-life (t1/2) • AUC to 2 h (AUC0–2h) • AUC to last measured time point (AUClast) and corresponding Frel for nasal formulation

For data set [3] the following is noted: cited from earlier work. The source says: Nasal delivery of large peptides such as parathyroid 1-34 (PTH 1-34) can benefit from a permeation enhancer to promote absorption across the nasal mucosa into the bloodstream. […] We report here the plasma pharmacokinetics of PTH 1-34 in healthy human volunteers receiving the liquid nasal spray formulation containing Solutol® HS15 ... || Our previously published preclinical data in rats for a liquid nasal spray formation were encouraging, showing that the nasal systemic absorption of PTH 1-34 was increased considerably when administered in a formulation containing Solutol® HS15. […] This was not consistent with the previous data from our small animal preclinical studies. In the preceding preclinical conscious rat model, we reported the pharmacokinetic performance of an […] PTH 1-34 subcutaneous formulation, an intranasal liquid formulation with no enhancer and an intranasal solution containing Solutol® HS15. PTH 1-34 doses of 80 μg/kg by subcutaneous injection and 100 μg/kg intranasally were given to rats. T ...

For data set [4] the following is noted: post-menopausal women with osteoporosis, 20 μg PTH 1-34 subcutaneous dose, reported by the manufacturers of the commercial formulation; cited from earlier work.
Where [5] appears, read: healthy female volunteers aged over 55 y, single 20 μg teriparatide subcutaneous injection into abdomen (Forsteo pen), plasma ELISA, mean of n = 7.
Setting [6] is: conscious rat, intranasal liquid formulation without enhancer, 100 μg/kg.

Each structure is given as a SMILES string. Like-named read-outs stand apart in the source and are kept apart here.

`CC[C@H](C)[C@H](NC(=O)[C@H](CCC(=O)O)NC(=O)[C@H](CO)NC(=O)[C@@H](NC(=O)[C@@H](N)CO)C(C)C)C(=O)N[C@@H](CCC(N)=O)C(=O)N[C@@H](CC(C)C)C(=O)N[C@@H](CCSC)C(=O)N[C@@H](Cc1cnc[nH]1)C(=O)N[C@@H](CC(N)=O)C(=O)N[C@@H](CC(C)C)C(=O)NCC(=O)N[C@@H](CCCCN)C(=O)N[C@@H](Cc1cnc[nH]1)C(=O)N[C@@H](CC(C)C)C(=O)N[C@@H](CC(N)=O)C(=O)N[C@@H](CO)C(=O)N[C@@H](CCSC)C(=O)N[C@@H](CCC(=O)O)C(=O)N[C@@H](CCCN=C(N)N)C(=O)N[C@H](C(=O)N[C@@H](CCC(=O)O)C(=O)N[C@@H](Cc1c[nH]c2ccccc12)C(=O)N[C@@H](CC(C)C)C(=O)N[C@@H](CCCN=C(N)N)C(=O)N[C@@H](CCCCN)C(=O)N[C@@H](CCCCN)C(=O)N[C@@H](CC(C)C)C(=O)N[C@@H](CCC(N)=O)C(=O)N[C@@H](CC(=O)O)C(=O)N[C@H](C(=O)N[C@@H](Cc1cnc[nH]1)C(=O)N[C@@H](CC(N)=O)C(=O)N[C@@H](Cc1ccccc1)C(=O)O)C(C)C)C(C)C` [PTH 1-34, PTH 1-34 acetate]: the “integrity of the spray dried PTH 1-34: purity by HPLC” value in data set [1] is over 82.5%. In addition, the F rel in data set [2] (female, plasma, inhaled or intranasal, 90 ug, human, 90 μg intranasal vs 20 μg subcutaneous, all seven subjects included in the calculation, read-out: bioavailability after intranasal dosing compared to subcutaneous injection of Forsteo) was 0.26%. Besides, the Cmax in data set [2] (setting [5]) is 0.253 ng/mL; in data set [2] (human, inhaled or intranasal, 90 ug, healthy female volunteers aged over 55 y, single 90 μg PTH 1-34 intranasal liquid spray with 7.5% w/v Solutol HS15 (Rexam SP270), plasma ELISA, mean of n = 7, not detectable in 5 of 7, read-out: Cmax), 0.005 ng/mL; in data set [3] (setting [6]), 2 ng/mL; in data set [3] (rat, subcutaneous injection, 80 μg/kg PTH 1-34, mean), 14.8 ng/mL; in data set [4], about 0.15 ng/mL. The t½ in data set [2] (setting [5]) came to 65 min. Moreover, the “bioavailability after intranasal dosing compared to subcutaneous injection of Forsteo” value in data set [2] (human, 90 μg intranasal vs 20 μg subcutaneous, only the subjects with measurable plasma concentrations) was “approximately 1%”. The Tmax in data set [2] (human, inhaled or intranasal, 90 ug, healthy female volunteers aged over 55 y, single 90 μg PTH 1-34 intranasal liquid spray with 7.5% w/v Solutol HS15 (Rexam SP270), plasma ELISA, mean of n = 7, not detectable in 5 of 7) is 9 min; in data set [3] (setting [6]), 13 min; in data set [3] (conscious rat, intranasal solution containing Solutol HS15, 100 μg/kg) it was about 10 min. Besides, the relative bioavailability was 8% in data set [3] (conscious rat, intranasal liquid formulation without enhancer (100 μg/kg) relative to subcutaneous injection (80 μg/kg)) and 78% in data set [3] (rat, intranasal liquid formulation containing Solutol HS15 (100 μg/kg) relative to subcutaneous injection (80 μg/kg)). In addition, the elimination half-life entry in data set [4] is given as “approximately 1 h”.
